Results: patent publication US11918645B2, “Vaccines against hepatitis B virus” (priority 2012, dated 2024)

Key:
[1] = preparation of pool 22
[2] = biological target: T1, HLA-DR13 (α1*01:01;β1*13:01) (Homo sapiens, UniProt P01903+P01911, A100E/A169T/K41T/L162R/M171V/P40S/Q125H/Q178H/Q39Y/Q99D/R42S/S66N/W38E/Y61H); assay: ProImmune REVEAL MHC class II binding assay of long peptides; conditions: percentage of the signal of the positive control peptide; positive binding score >=15%
T1 construct: purchased ProImmune
T1 sequence (P01903 26-216, other chains not shown): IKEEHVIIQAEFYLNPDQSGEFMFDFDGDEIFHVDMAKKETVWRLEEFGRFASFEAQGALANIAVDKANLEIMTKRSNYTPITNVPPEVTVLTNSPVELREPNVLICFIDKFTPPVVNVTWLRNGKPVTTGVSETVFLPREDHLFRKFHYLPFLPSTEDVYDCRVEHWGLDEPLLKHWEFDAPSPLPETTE
Text: The highly frequent HLA class II alleles HLA-DR1 (α1*01:01;β1*01:01), HLA-DR15 (α1*01:01;β1*15:01), HLA-DR3 (α1*01:01;β1*03:01), HLA-DR4 (α1*01:01;β1*04:01), HLA-DR11 (α1*01:01;β1*11:01), HLA-DR13 (α1*01:01;β1*13:01), and HLA-DR7 (α1*01:01;β1*07:01) were selected. Each peptide was given a score relative to the positive control peptide, which is a known T-cell epitope.

[3] = biological target: HLA-B*0801 (Homo sapiens, UniProt P01889, A93T/A95T/D138N/E176V/E187T/K202T/Q94N/R180D/S35A/V36M/Y33D/Y91F); assay: ProImmune REVEAL MHC class I binding assay of nonamers; conditions: score as % of positive control peptide
Text: (§1) The number of HLA class I binding registers contained in each peptide may be determined by determining the ability of the peptide to bind to a range of frequently occurring HLA class I molecules. HLA class I binding may be measured using the ProImmune REVEAL® MHC-peptide Binding Assay (ProImmune Ltd, Oxford, UK). The REVEAL™ MHC peptide-binding assay measures the ability of each peptide to stabilize the ternary MHC-peptide complex for […], HLA-A*0201, HLA¬A*0301, HLA-A*2402, HLA-B*0702, HLA-B*0801, HLA-B*3501 representative of main HLA class I supertypes. Each tested peptide is given a score relative to a pass/fail control peptide and also compared to a positive control peptide.
(§2) Detection is based on the presence or absence of the native conformation of the MHC-peptide complex. The highly frequent HLA class I alleles (HLA-A*0201, A*0301, A*1101, A*2402, B*0702, B*0801, and B*3501) were selected. Binding to MHC molecules was compared to that of a known T-cell epitope, a positive control peptide, with very strong binding properties. […] The score of the test peptide is reported quantitatively as a percentage of the signal generated by the positive control peptide, and the peptide is indicated as having a putative pass or fail result. Good binders are considered to be those peptides with scores 45% of the positive control as defined by ProImmune.

[4] = biological target: T2, HLA-A*0301 (Homo sapiens, UniProt P04439); assay: as above; conditions: score as % of positive control peptide
T2 construct: purchased ProImmune
Text: as §1, §2

[5] = biological target: HLA-A*0201 (Homo sapiens, UniProt P04439, D140Y/D185E/D98H/E176V/E277Q/G131W/G231S/I119V/I121R/I166T/I218V/L300P/L318F/N151K/N90K/P208A/P217A/Q86G/Q94H/R138H/R169H/T345S); assay: as above; conditions: score as % of positive control peptide
Text: as §1, §2

[6] = biological target: HLA-A*2402 (Homo sapiens, UniProt P04439, D101N/D140Y/D185E/E176V/E190D/F33S/G103R/G107R/I119L/I121M/I306V/K335N/L105A/L180Q/L300P/N151K/N90K/Q86E/Q94H/R106L/R138H/R89G/T104I/T345S/V100E/W191G/Y123F); assay: as above; conditions: score as % of positive control peptide
Text: as §1, §2

[7] = biological target: T3, HLA-B*0702 (Homo sapiens, UniProt P01889); assay: as above; conditions: score as % of positive control peptide
T3 construct: purchased ProImmune
Text: as §1, §2

[8] = biological target: HLA-B*3501 (Homo sapiens, UniProt P01889, A329T/A93T/A95T/C349S/D201E/D98Y/E176V/E187L/E204Q/E69T/I218V/K202T/L119I/Q94N/R155S/R180L/S121R/S35A/S48A/T118I/V127L/V306I/V36M/Y140S/Y91F); assay: as above; conditions: score as % of positive control peptide
Text: as §1, §2

[9] = biological target: T4, HLA-A*1101 (Homo sapiens, UniProt P04439, A114D/D185E/E176A/F33Y/L180Q/S129P/T187R); assay: as above; conditions: score as % of positive control peptide
T4 construct: purchased ProImmune
Text: as §1, §2

[10] = test system: HLA class II alleles; assay: ProImmune REVEAL MHC class II binding assay, summary over the seven alleles; parameters: species or system human; conditions: number of class II alleles for which positive binding (score >=15%) was detected
Text: (§3) The highly frequent HLA class II alleles HLA-DR1 (α1*01:01;β1*01:01), HLA-DR15 (α1*01:01;β1*15:01), HLA-DR3 (α1*01:01;β1*03:01), HLA-DR4 (α1*01:01;β1*04:01), HLA-DR11 (α1*01:01;β1*11:01), HLA-DR13 (α1*01:01;β1*13:01), and HLA-DR7 (α1*01:01;β1*07:01) were selected. Each peptide was given a score relative to the positive control peptide, which is a known T-cell epitope. The score of the test peptide is reported quantitatively as a percentage of the signal generated by the positive control peptide, and the peptide is indicated as having a putative pass or fail result. Good binders are considered to be those peptides with scores >=15% of the positive control as defined by Proimmune.

[11] = test system: HLA-DP4 (α1*01:03;β1*04:01); assay: ProImmune REVEAL MHC class II binding assay of long peptides; parameters: species or system human; conditions: percentage of the signal of the positive control peptide; positive binding score >=15%
[12] = test system: HLA class I alleles; assay: ProImmune REVEAL MHC class I binding assay, summary over the seven alleles; parameters: species or system human; conditions: for Number of allele (b): number of class I alleles for which positive binding was detected; for Number of HLA binders (a): total number binding epitopes detected for each long peptide, seven class I alleles
Text: as §1, §2

[13] = biological target: T5, HLA-DR7 (α1*01:01;β1*07:01) (Homo sapiens, UniProt P01903+P01911, A100R/A102G/A103Q/D57E/D86V/E43K/F76Y/K127E/L162R/M171V/P40G/Q125H/Q99D/R195Q/R33Q/R42Y/R54Q/S133A/S149N/S66F/T210M/V115G/Y107V/Y59L/Y89S); assay: ProImmune REVEAL MHC class II binding assay of long peptides; conditions: percentage of the signal of the positive control peptide; positive binding score >=15%
T5 construct: purchased ProImmune
Text: as §3

[14] = biological target: T6, HLA-DR15 (α1*01:01;β1*15:01) (Homo sapiens, UniProt P01903+P01911); assay: as above; conditions: percentage of the signal of the positive control peptide; positive binding score >=15%
T6 construct: purchased ProImmune
Text: as §3

[15] = test system: HLA-DR1 (α1*01:01;β1*01:01); assay: as above; parameters: species or system human; conditions: percentage of the signal of the positive control peptide; positive binding score >=15%
Text: as §3

[16] = test system: HLA-DR3 (α1*01:01;β1*03:0); assay: as above; parameters: species or system human; conditions: percentage of the signal of the positive control peptide; positive binding score >=15%
Text: as §3

[17] = test system: PBMC from chronic HBV-infected subjects; assay: IFNγ ELISpot of PBMC restimulated with individual unconjugated HBV long peptides (Example 5); type: cell-based, human; conditions: for T cell responses (IFNγ ELISpot), level and frequency of responders: HBeAg-negative inactive carriers and HBeAg-negative treated subjects, 5 μg/mL, 18 h, FIGS. 9 and 10; for T cell responses (IFNγ ELISpot) grouped by infecting HBV genotype: genotypes A, B, C & D, FIG. 11; for T cell responses (IFNγ ELISpot) grouped by ethnic background: three ethnic groups, FIG. 12
Procedure: One vial of PBMC from each subject (containing 1×10^7 cells) was thawed and lymphocyte numbers were determined using a Scepter™ automated handheld cell counter. PBMC were cultured in 2 mL culture medium (CM: RPMI-1640 Glutamax supplemented with 5% human AB serum) in 24 well cell culture plates at a concentration of 1×10^6 cells/mL for a total of 11 days. Cells were stimulated with a mixture of the nine HBV-derived long peptides described in Example 3.
Each peptide was used at a final concentration of 1 μg/peptide/mL. On Day 4, IL-2 and IL-15 were added to the cultures to final concentrations of 10 IU/mL and 10 ng/mL respectively. On Day 10, cells were washed twice in CM and cultured with 10 IU/mL IL-2 for 1 additional day. On Day 11, cells were washed twice in CM, counted and incorporated in a human IFNγ (interferon-gamma) ELISpot assay or intracellular cytokine staining.
Cells from short term cultures were plated in triplicate wells at 5×10^4 PBMC/well. Final antigen concentrations used were: 5 μg/mL for each individual peptides; PHA positive control: 1 μg/mL.

Molecule	dispersibility / solubility [1]	binding score, HLA-DR13 (α1*01:01;β1*13:01) [2]	Number of nonamers having a binding score >= 45%, HLA-B*0801 [3]	Number of nonamers having a binding score >= 45%, HLA-A*0301 [4]	Number of nonamers having a binding score >= 45%, HLA-A*0201 [5]	Number of nonamers having a binding score >= 45%, HLA-A*2402 [6]	Number of nonamers having a binding score >= 45%, HLA-B*0702 [7]	Number of nonamers having a binding score >= 45%, HLA-B*3501 [8]	Number of nonamers having a binding score >= 45%, HLA-A*1101 [9]	Number of allele (a) [10]	binding score, HLA-DP4 (α1*01:03;β1*04:01) [11]	Number of allele (b) [12]	Number of HLA binders (a) [12]	binding score, HLA-DR7 (α1*01:01;β1*07:01) [13]	binding score, HLA-DR15 (α1*01:01;β1*15:01) [14]	binding score, HLA-DR1 (α1*01:01;β1*01:01) [15]	binding score, HLA-DR3 (α1*01:01;β1*03:0) [16]	T cell responses (IFNγ ELISpot), level and frequency of responders [17]	T cell responses (IFNγ ELISpot) grouped by infecting HBV genotype [17]	T cell responses (IFNγ ELISpot) grouped by ethnic background [17]
CC[C@H](C)[C@H](NC(=O)[C@H](Cc1ccccc1)NC(=O)[C@H](CC(C)C)NC(=O)[C@H](Cc1ccccc1)NC(=O)[C@@H](NC(=O)[C@@H](NC(=O)[C@H](Cc1ccccc1)NC(=O)[C@H](CCCNC(=N)N)NC(=O)[C@H](CCCNC(=N)N)NC(=O)[C@@H](N)CC(C)C)[C@@H](C)CC)[C@@H](C)CC)C(=O)N[C@@H](CC(C)C)C(=O)N[C@@H](CC(C)C)C(=O)N[C@@H](CC(C)C)C(=O)N[C@@H](CS)C(=O)N[C@@H](CC(C)C)C(=O)N[C@H](C(=O)N[C@@H](Cc1ccccc1)C(=O)N[C@@H](CC(C)C)C(=O)N[C@@H](CC(C)C)C(=O)N[C@H](C(=O)O)C(C)C)[C@@H](C)CC [SEQ ID NO: 212]	could not be dispersed due to insolubility	–	–	–	–	–	–	–	–	–	–	–	–	–	–	–	–	–	–	–
CC[C@H](C)[C@H](NC(=O)[C@H](CC(C)C)NC(=O)[C@H](CS)NC(=O)[C@H](CC(C)C)NC(=O)[C@H](CC(C)C)NC(=O)[C@H](CC(C)C)NC(=O)[C@@H](NC(=O)[C@@H](N)Cc1ccccc1)[C@@H](C)CC)C(=O)N[C@@H](Cc1ccccc1)C(=O)N[C@@H](CC(C)C)C(=O)N[C@@H](CC(C)C)C(=O)N[C@H](C(=O)N[C@@H](CC(C)C)C(=O)N[C@@H](CC(C)C)C(=O)N[C@@H](CC(=O)O)C(=O)N[C@@H](Cc1ccc(O)cc1)C(=O)N[C@@H](CCC(N)=O)C(=O)NCC(=O)N[C@@H](CCSC)C(=O)N[C@@H](CC(C)C)C(=O)O)C(C)C [SEQ ID NO: 213]	could not be dispersed due to insolubility	–	–	–	–	–	–	–	–	–	–	–	–	–	–	–	–	–	–	–
NP856(K): unconjugated HBV long peptide, core 839-873 + KKK (LTFGRETVLEYLVSFGVWIRTPPAYRPPNAPILSTKKK; HBV CONSENSUS SEQUENCE)	–	0.00%	1	0	4	4	2	0	0	0	10.72%	4	11	0.40%	5.71%	2.33%	0.13%	highest level of responses in both patient populations and in the highest proportion of subjects	highest responses across all four genotypes A, B, C & D	highest responses across all three ethnic groups
NP877: unconjugated HBV long peptide, core 860-890	–	–	1	0	2	2	1	0	0	1	0.04%	4	6	2.78%	0.09%	0.24%	5.58%	highest level of responses in both patient populations and in the highest proportion of subjects	highest responses across all four genotypes A, B, C & D	highest responses across all three ethnic groups
